Marks after values point to notes of the source that are not given here.
Experiments:
[1] = tested on: isolated single myocytes; assay: Residual sarcomere length of isolated myocytes with BDM; format: cell-based, mouse; conditions: BDM 10 mM
Procedure: 2,3-Butanedione monoxime (BDM), a cross-bridge inhibitor, was used to measure residual sarcomere length. BDM inhibits the Ca^2+ regulated attachment of the cross-bridges and force-generation of the attached cross-bridges (Reference 16). Isolated single myocytes were loaded on an chamber and perfused with BDM (10 mM) in Tyrode's solution at 37° C. Sarcomere length was again measured while the myocytes were field-stimulated as described above.

[2] = tested on: DOCA-salt mouse model (diastolic dysfunction) and sham mice; assay: Transthoracic echocardiography, in vivo BH4 treatment in DOCA-salt mice; conditions: BH4 diet 5 mg BH4/day day 11-18, mean ± SEM
Procedure: Previously, I have shown that the DOCA-salt mouse model leads to mild hypertension, NOS uncoupling, myocardial oxidative stress, and diastolic dysfunction (Reference 10). A gradual and mild elevation in blood pressure was induced by unilateral nephrectomy, subcutaneous implantation of a controlled release deoxycorticosterone acetate (DOCA) pellet (0.7 mg/d; Innovative Research of America, Sarasota, Fla.), and substituting drinking water with 1.05% saline. Control animals underwent a sham operation, had placebo pellet implantation, and received water without salt.
Mice were divided into two groups which received a control diet (sham N=7; DOCA-salt N=10) and two groups which received a BH4 supplemental diet of 5 mg BH4/day (Research Diets Inc, New Brunswick, N.J.; sham+BH4 N=8; DOCA-salt+BH4 N=8). The supplemental diet began on day 11 after surgery, and continued until day 18, when the mice were analyzed and sacrificed.
Mitral pulse wave Doppler flow and tissue Doppler imaging (TDI) were performed using the Vevo 770 high-resolution in vivo imaging system (Visual Sonics, Toronto, Canada) (Reference 10). Mice were anesthetized with 1-1.5% isoflurane until a heart rate of around 350-390 beats/min was achieved because measures of diastolic function are sensitive to heart rate and loading conditions. M-mode images in the parasternal long axis and the left ventricle (LV) short-axis views at the mid-papillary level were taken. Measurements were averaged from five consecutive beats during expiration. The images for each mouse were recorded for at least 5 s (30-40 cardiac cycles) from which three to five representative cycles with the highest quality imaging were selected. Percent fractional shortening (% FS) was calculated as 100×(LVEDd)−(LVESd)/(LVEDd) and percent LV ejection fraction (% EF) was calculated as 100×[(7/2.4+LVEDd)×LEDd^3]−[(7/2.4+LVESd)×LVESd^3]/[(7/2.4+LVEDd)×LEDd^3]. Doppler measurements were made at the tips of the mitral leaflets for diastolic filling profiles in the apical four-chamber view. Mitral inflow velocities, peak early (E) and late (A) were measured by conventional pulsed-wave Doppler. TDI was used to determine the mitral annulus longitudinal velocities (Sm, E′, and A′) (Reference 10). Baseline images before treatment were acquired to confirm diastolic dysfunction in DOCA-salt mice. Subsequently, the mice were fed with BH4, followed by echocardiography at day 18.

[3] = tested on: isolated ventricular myocytes; assay: Isolated myocyte contraction and relaxation parameters (IonOptix); format: cell-based, mouse; conditions: 1.0 Hz, 10 V, external Ca2+ 1.2 mmol/L
[4] = tested on: MnSOD deficient cardiomyocytes; assay: Contraction and relaxation of cardiomyocytes from heterozygous MnSOD knockout mice (IonOptix); format: cell-based, mouse; conditions: BH4 treatment
Procedure: Echocardiography was used to determine DD in heterozygous MnSOD knockout mice. The mitral annulus longitudinal velocities (E′, and A′) were determined by pulsed-wave tissue Doppler from the apical four-chamber view. Mitochondrial ROS were measured by confocal microscopy and flow cytometry from isolated cardiomyocytes using MitoSOX Red. NO was measured by DAF-FM and by the Griess reaction. Contraction and relaxation impairment were assessed by lonOptix System.

[5] = myocytes from DOCA-salt + BH4 mice

CC(=O)C(C)=NO [BDM, 2,3-Butanedione monoxime]
Residual sarcomere length ([1]; myocytes after BH4 treatment): no effect | Residual sarcomere length ([1]; myocytes of sham and DOCA-salt groups): increased

C[C@H](O)[C@H](O)[C@H]1CNc2nc(N)[nH]c(=O)c2N1 [BH4, tetrahydrobiopterin]
A′ (tissue Doppler) ([2]; DOCA-salt mice): 15.2 ± 1.0 mm/s | EF (ejection fraction) ([2]; DOCA-salt mice): 54.5 ± 5.0% | E′ (tissue Doppler) ([2]; DOCA-salt mice): 16.8 ± 1.3†^ mm/s | FS (fractional shortening) ([2]; DOCA-salt mice): 26.6 ± 2.9% | LVEDD ([2]; DOCA-salt mice): 3.67 ± 0.14 mm | LVESD ([2]; DOCA-salt mice): 2.65 ± 0.21 mm | MV A ([2]; DOCA-salt mice): 367.8 ± 48.3 mm/s | MV E ([2]; DOCA-salt mice): 555.0 ± 35.1†^ mm/s | MV E/A ratio ([2]; DOCA-salt mice): 1.71 ± 0.33 | Sm ([2]; DOCA-salt mice): 15.8 ± 1.5 | A′ (tissue Doppler) ([2]; sham mice): 21.1 ± 1.9 mm/s | E/E′ ratio ([2]; sham mice): 34.91 ± 6.81& | EF (ejection fraction) ([2]; sham mice): 51.1 ± 2.8% | E′ (tissue Doppler) ([2]; sham mice): 24.4 ± 2.2†& mm/s | E′/A′ ratio ([2]; sham mice): 1.17 ± 0.06& | FS (fractional shortening) ([2]; sham mice): 24.7 ± 1.6% | LVEDD ([2]; sham mice): 4.05 ± 0.10 mm | LVESD ([2]; sham mice): 3.01 ± 0.11 mm | MV A ([2]; sham mice): 357.5 ± 31.7 mm/s | MV E ([2]; sham mice): 738.1 ± 31.1†& mm/s | MV E/A ratio ([2]; sham mice): 2.28 ± 0.33 | Sm ([2]; sham mice): 22.9 ± 1.5 | Diastolic SL [3, 5]: 1.77±0.01 μm | Relengthening velocity [3, 5]: 2.39 ± 0.18 μm/s | Sarcomere shortening [3, 5]: 9.48 ± 0.49% | Shortening velocity [3, 5]: −2.42 ± 0.14 μm/s | Systolic SL [3, 5]: 1.60 ± 0.01 μm | Time to 50% relengthening [3, 5]: 240.3 ± 7.5 ms | Time to 50% shortening [3, 5]: 47.5 ± 0.7 ms | Time to 90% relengthening [3, 5]: 300.0 ± 13.4 ms | Time to 90% shortening [3, 5]: 93.5 ± 1.8 ms | Time to peak shortening [3, 5]: 146.2 ± 0.3 ms | Diastolic SL ([3]; myocytes from sham + BH4 mice): 1.80 ± 0.01#†& μm | Relaxation constant, τ ([3]; myocytes from sham + BH4 mice): 0.07 ± 0.00& | Relengthening velocity ([3]; myocytes from sham + BH4 mice): 2.75 ± 0.18#†& μm/s | Sarcomere shortening ([3]; myocytes from sham + BH4 mice): 10.64 ± 0.61& % | Shortening velocity ([3]; myocytes from sham + BH4 mice): −2.90 ± 0.16#†& μm/s | Systolic SL ([3]; myocytes from sham + BH4 mice): 1.61 ± 0.01& μm | Time to 50% relengthening ([3]; myocytes from sham + BH4 mice): 204.7 ± 6.0&# ms | Time to 50% shortening ([3]; myocytes from sham + BH4 mice): 45.6 ± 0.8 ms | Time to 90% relengthening ([3]; myocytes from sham + BH4 mice): 258.7 ± 11.7&# ms | Time to 90% shortening ([3]; myocytes from sham + BH4 mice): 87.3 ± 1.8&# ms | Time to peak shortening ([3]; myocytes from sham + BH4 mice): 133.6 ± 0.3& ms | Relaxation constant (tau) [4]: 0.73±0.01 | Resting sarcomere length [4]: 1.77±0.01 μm

Source: patent US9114133B2, “Method of improving diastolic dysfunction” (U.S. DEPT. OF VETERANS AFFAIRS, priority 2006, dated 2015)
